Assay results as given in patent US5952307A, “Basic α-aminoalkylphosphonate derivatives” (priority 1997, dated 1999).

Assays:
Format in all cases: biochemical
human granzyme A = target: T1, human granzyme A (Homo sapiens, UniProt P12544); assay: Inactivation rate of human granzyme A, incubation method; conditions: Table I; 0.1M Hepes, 0.01M CaCl2 pH 7.5, 25° C., 7.6% DMSO, substrate Z--Arg--SBzl
T1 sequence (P12544 29-262): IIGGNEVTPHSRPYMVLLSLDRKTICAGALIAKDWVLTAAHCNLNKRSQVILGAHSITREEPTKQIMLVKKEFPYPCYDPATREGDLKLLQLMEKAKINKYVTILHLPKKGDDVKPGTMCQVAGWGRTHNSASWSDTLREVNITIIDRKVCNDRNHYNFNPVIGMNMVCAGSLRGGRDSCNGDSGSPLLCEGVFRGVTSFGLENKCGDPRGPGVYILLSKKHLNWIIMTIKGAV
Experimental: (§1) Inactivation rates of serine proteases by aryl diesters of peptidyl derivatives of α-aminoalkylphosphonates were measured by the incubation method. An aliquot of inhibitor (25 or 50 μl) in Me2 SO was added to a buffered enzyme solution (0.01-2.3 μM) to initiate the inactivation. Aliquots (50 μl) were withdrawn at various intervals and the residual enzymatic activity was measured. Me2 SO concentration in the reaction mixture was 8-12% (v/v). A 0.1 M HEPES, 0.01 M CaCl2, pH 7.5 buffer was utilized for trypsin and trypsin-like enzymes. A 0.1 M HEPES, 0.5 M NaCl, pH 7.5, was utilized for the other serine proteases. Peptide thioesters or peptide nitroanilides with the appropriate sequences were used as substrates for various serine proteases. All peptide thioesters hydrolysis rates were measured with the assay mixture containing 4,4'-dithiodipyridine {ε324 =19800 M^-1 cm^-1; Grasetti & Murray, Arch. Biochem. Biophys. 1967, 119, 41-48}. Peptide 4-nitroanilide hydrolysis was measured at 410 nm {ε410 =8800 M^-1 cm^-1; Erlanger et al., Arch. Biochem. Biophys. 1961, 95, 271-278}. First order inactivation rate constants (Kobs) were obtained from plots of In vt /vo vs time, and the correlation coefficients were greater then 0.98.
(§2) ^a Inhibition constants were measured in 0.1M Hepes, 0.01M CaCl2
(§3) pH 7.5 for trypsin, granzymes A, and K, and in 0.1M Hepes, 10% glycerol,
(§4) 10 mM heparin, pH 7.5 for mast cell tryptase, and at 25° C. The
(§5) reaction mixtures contained 2% DMSO for trypsin, 7.6% for granzyme A, and
(§6) 7.1% for granzyme K and tryptase. The substrate was Z--Arg--SBzl for
(§7) granzymes and trypsin, and Z--Arg--SBzl or Z--Lys--SBzl for tryptase in
(§8) the presence of DTNB. The inhibitor # concentration ranged from 0.001 to
(§9) ^b NI, no inhibition after 25 min of incubation with enzyme.

mast cell tryptase = mast cell tryptase (Homo sapiens, UniProt Q15661); assay: Inactivation rate of mast cell tryptase, incubation method; conditions: for kobs /[I] mast cell tryptase: Table II, 0.07 μM tryptase, 20-66 μM inhibitor, Hepes pH 7.5, heparin, 9% glycerol, 8% DMSO, 25° C., NI = no inhibition
mast cell tryptase, sequence (Q15661 31-275): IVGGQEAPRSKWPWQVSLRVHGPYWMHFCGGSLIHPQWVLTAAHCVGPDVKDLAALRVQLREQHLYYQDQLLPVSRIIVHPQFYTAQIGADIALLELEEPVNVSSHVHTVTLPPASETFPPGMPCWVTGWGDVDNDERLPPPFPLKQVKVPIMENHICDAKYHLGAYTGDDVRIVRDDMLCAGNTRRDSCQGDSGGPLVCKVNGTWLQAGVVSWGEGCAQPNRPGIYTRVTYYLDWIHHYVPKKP
Experimental: as §1, §2, §3, §4, §5, §6, §7, §8, §9
(§10) ^a Enzyme was incubated with the inhibitor in 250 μL of the proper
(§11) containing 428 mM NaCl and 8% DMSO; 0.07 μM tryptase, 20-66 μM
inhibitor # in an mM Hepes, pH 7.5 buffer containing 8 mM heparin, 166 m
NaCl, 0.8 mM Mes, 9% glycerol and 8% DMSO; 0.42 μM factor Xa, 66 μM
(§12) DMSO. Aliquots of 25 μL were withdrawn at various intervals and the
(§13) residual enzymatic activity was measured as described in experimental
(§14) section. The kobs values were calculated from pseudofirst-order
(§15) ^a Enzyme (0.06-0.5 μM) was incubated with the inhibitor (0.25-42
(§16) μM) in 250 μL of the proper buffer containing 9% DMSO at 25°
(§17) C. The final inhibition reaction mixtures are given in the footnote to
(§18) Table 1. Aliquots of 25 μL were withdrawn at various intervals and the […]

bovine trypsin = target: T2, bovine trypsin (Bos taurus, UniProt P00760); assay: Inactivation rate of bovine trypsin, incubation method; conditions: for kobsd /[I] bovine trypsin: Table I, 0.1M Hepes, 0.01M CaCl2 pH 7.5, 25° C., 2% DMSO, substrate Z--Arg--SBzl, NI = no inhibition after 25 min; for kobs /[I] bovine trypsin: 0.13 μM trypsin, 0.25-42 μM inhibitor, 80 mM Hepes pH 7.5, 1 mM CaCl2, 8% DMSO, 25° C., NI = no inhibition
T2 sequence (P00760 24-246): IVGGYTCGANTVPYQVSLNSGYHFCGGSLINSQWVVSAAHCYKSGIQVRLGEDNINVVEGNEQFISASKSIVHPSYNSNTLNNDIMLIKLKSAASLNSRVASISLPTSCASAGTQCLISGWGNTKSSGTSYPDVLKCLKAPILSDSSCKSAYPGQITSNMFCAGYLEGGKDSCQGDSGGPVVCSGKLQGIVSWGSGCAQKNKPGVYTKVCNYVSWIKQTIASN
Experimental: as §1, §2, §3, §4, §5, §6, §7, §8, §9, §10
(§19) buffer at 25° C. Specifically, the inhibition reation mixtures wer
composed of: 0.13 μM trypsin, 0.25-42 μM inhibitor in an 80 mM
(§20) Hepes, pH 7.5 buffer containing 1 mM CaCl2 and 8% DMSO; 0.07 μM
as §12, §13, §14, §15, §16, §17, §18

human thrombin = target: T3, human thrombin (Homo sapiens, UniProt P00734); conditions: Table II; for kobs /[I] human thrombin: 0.07 μM thrombin, 0.25-42 μM inhibitor, 80 mM Hepes pH 7.5, 428 mM NaCl, 8% DMSO, 25° C., NI = no inhibition
T3 construct: bovine trypsin, human thrombin
Experimental: as §1, with “271-278}.” for “271-278}. First order inactivation rate constants (Kobs) were obtained from plots of In vt /vo vs time, and the correlation coefficients were greater then 0.98.”
as §10, §19, §20
thrombin, 0.25-42 μM inhibitor in an 80 mM Hepes, pH 7.5 buffer
as §11, §12, §13, §14, §15, §16, §17, §18

CC(NC(=O)C(CCCCNC(=O)OC(C)(C)C)NC(=O)OCc1ccccc1)C(=O)NC(c1ccc(C(=N)N)cc1)P(=O)(Oc1ccccc1)Oc1ccccc1 (mixture of isomers) [Cbz--Lyz(Boc)--Ala-(4-AmPhGly)^P (OPh)2]
kobsd /[I] human granzyme A (human granzyme A): 110 ± 5 M⁻¹ s⁻¹
kobsd /[I] mast cell tryptase (mast cell tryptase; Table I, 0.1M Hepes, 10% glycerol, 10 mM heparin, pH 7.5, 25° C., 7.1% DMSO, NI = no inhibition after 25 min of incubation): 8.5 ± 0.4 M⁻¹ s⁻¹
kobs /[I] mast cell tryptase (mast cell tryptase): 8.7 ± 0.4 M⁻¹ s⁻¹
kobsd /[I] bovine trypsin (bovine trypsin): 3100 ± 177 M⁻¹ s⁻¹
kobs /[I] bovine trypsin (bovine trypsin; Table II): 3,100 ± 177 M^-1 s^-1
kobs /[I] human thrombin (human thrombin): 450 ± 58 M⁻¹ s⁻¹

Cl.N=C(N)c1cccc(C(NC(=O)OCc2ccccc2)P(=O)(Oc2ccccc2)Oc2ccccc2)c1 (stereo not drawn) [Cbz-(3-AmPhGly)^P (OPh)2, Diphenyl N-Benzyloxycarbonylamino-(3-amidinophenyl)methanephosphonate Hydrochloride]
% Inh human thrombin (human thrombin; printed in the kobs/[I] column): 50%

Cl.N=C(N)c1ccc(C(NC(=O)OCc2ccccc2)P(=O)(Oc2ccccc2)Oc2ccccc2)cc1 (stereo not drawn) [Cbz-(4-AmPhGly)^P (OPh)2, Diphenyl N-benzyloxycarbonylamino(4-amidinophenyl)methanephosphonate hydrochloride]
kobsd /[I] bovine trypsin (bovine trypsin): 2000 M⁻¹ s⁻¹
kobs /[I] bovine trypsin (bovine trypsin; Table II): 170 M⁻¹ s⁻¹
kobs /[I] human thrombin (human thrombin): 80 M⁻¹ s⁻¹

CC(C)C(NC(=O)C(Cc1ccccc1)NC(=O)OC(C)(C)C)C(=O)NC(c1ccc(C(=N)N)cc1)P(=O)(Oc1ccccc1)Oc1ccccc1 (mixture of isomers) [Boc--D--Phe--Val-(4-AmPhGly)^P (OPh)2]
kobs /[I] bovine trypsin (bovine trypsin; Table II): 30 ± 2 M⁻¹ s⁻¹
kobs /[I] human thrombin (human thrombin): 63 ± 4 M⁻¹ s⁻¹

CC(C)CC(NC(=O)OC(C)(C)C)C(=O)NC(CO)C(=O)NC(c1ccc(C(=N)N)cc1)P(=O)(Oc1ccccc1)Oc1ccccc1 (mixture of isomers) [Boc--Leu--Ser-(4-AmPhGly)^P (OPh)2]
kobs /[I] bovine trypsin (bovine trypsin; Table II): 177 ± 2 M⁻¹ s⁻¹
kobs /[I] human thrombin (human thrombin): 97 ± 2 M⁻¹ s⁻¹

N=C(N)c1ccc(C(NC(=O)C(Cc2c[nH]c3ccccc23)NC(=O)OCc2ccccc2)P(=O)(Oc2ccccc2)Oc2ccccc2)cc1 (mixture of isomers) [Cbz--Trp-(4-AmPhGly)^P (OPh)2]
kobs /[I] bovine trypsin (bovine trypsin; Table II): 0.6 M⁻¹ s⁻¹
kobs /[I] human thrombin (human thrombin): 1.2 ± 0.0 M⁻¹ s⁻¹

CC(C)C(NC(=O)OC(C)(C)C)C(=O)NC(C(=O)NC(c1ccc(C(=N)N)cc1)P(=O)(Oc1ccccc1)Oc1ccccc1)C(C)C (mixture of isomers) [Boc--Val--Val-(4-AmPhGly)^P (OPh)2]
kobs /[I] bovine trypsin (bovine trypsin; Table II): 61 ± 5 M⁻¹ s⁻¹
kobs /[I] human thrombin (human thrombin): 85 ± 5 M⁻¹ s⁻¹

COP(=O)(Oc1ccccc1)C(NC(=O)OCc1ccccc1)c1ccc(C(=N)N)cc1.Cl (stereo not drawn) [Cbz-(4-AmPhGly)^P (OPh)(OMe), Methyl Phenyl N-Benzyloxycarbonylamino-(4-amidinophenyl)methanephosphonate Hydrochloride]
kobs /[I] bovine trypsin (bovine trypsin; Table II): 83 M⁻¹ s⁻¹
kobs /[I] human thrombin (human thrombin): 41 M⁻¹ s⁻¹

N=C(N)c1ccc(C(NC(=O)CNC(=O)OCc2ccccc2)P(=O)(Oc2ccccc2)Oc2ccccc2)cc1 (stereo not drawn) [Cbz--Gly-(4-AmPhGly)^P (OPh)2]
kobs /[I] bovine trypsin (bovine trypsin; Table II): 195 ± 9 M⁻¹ s⁻¹
kobs /[I] human thrombin (human thrombin): 24 ± 3 M⁻¹ s⁻¹

CC(C)CC(N)C(=O)NC(C(=O)NC(c1ccc(C(=N)N)cc1)P(=O)(Oc1ccccc1)Oc1ccccc1)C(C)O (mixture of isomers) [Leu--Thr-(4-AmPhGly)^P (OPh)2]
kobs /[I] bovine trypsin (bovine trypsin; Table II): 24.5 ± 0.0 M⁻¹ s⁻¹
kobs /[I] human thrombin (human thrombin): 58 ± 3 M⁻¹ s⁻¹

CC(C)CC(NC(=O)OC(C)(C)C)C(=O)NC(C(=O)NC(c1ccc(C(=N)N)cc1)P(=O)(Oc1ccccc1)Oc1ccccc1)C(C)O (mixture of isomers) [Boc--Leu--Thr-(4-AmPhGly)^P (OPh)2]
kobs /[I] bovine trypsin (bovine trypsin; Table II): 35 ± 6 M⁻¹ s⁻¹
kobs /[I] human thrombin (human thrombin): 75 ± 1 M⁻¹ s⁻¹

Cc1ccc(S(=O)(=O)NC(c2ccc(C(=N)N)cc2)P(=O)(Oc2ccccc2)Oc2ccccc2)cc1 (racemic) [Tolyl-SO2-(4-AmPhGly)^P (OPh)2]
kobs /[I] bovine trypsin (bovine trypsin; Table II): 35 ± 6 M⁻¹ s⁻¹
kobs /[I] human thrombin (human thrombin): 94 ± 26 M⁻¹ s⁻¹

N=C(N)c1ccc(C(NC(=O)CCCc2ccccc2)P(=O)(Oc2ccccc2)Oc2ccccc2)cc1 (stereo not drawn) [4-Phenylbutanoyl-(4-AmPhGly)^P (OPh)2]
% Inh bovine trypsin (bovine trypsin; Table II, printed in the kobs/[I] column): 15%
kobs /[I] human thrombin (human thrombin): 17 ± 1 M⁻¹ s⁻¹

Cl.N=C(N)c1ccc(C(NC(=O)OCc2ccccc2)P(=O)(O)Oc2ccccc2)cc1 (stereo not drawn) [Cbz-(4-AmPhGly)^P (OPh)(OH), Phenyl Hydrogen N-Benzyloxycarbonylamino-(4-amidinophenyl)methanephosphonate Hydrochloride]
kobs /[I] bovine trypsin (bovine trypsin; Table II): 0.3 M⁻¹ s⁻¹

Cl.N=C(N)c1ccc(C(NC(=O)OCc2ccccc2)P(=O)(Oc2ccc(Cl)cc2)Oc2ccc(Cl)cc2)cc1 (stereo not drawn) [Cbz-(4-AmPhGly)^P (OPh-p-Cl)2, Di-p-chlorophenyl N-Benzyloxycarbonylamino-(4-amidinophenyl)methanephosphonate Hydrochloride]
kobs /[I] mast cell tryptase (mast cell tryptase): 3 ± 0 M⁻¹ s⁻¹
kobs /[I] bovine trypsin (bovine trypsin; Table II): 41,100 ± 5400 M^-1 s^-1
kobs /[I] human thrombin (human thrombin): 9,300 ± 210 M^-1 s^-1

CC(C)CC(NC(=O)C(CC(N)=O)NC(=O)OC(C)(C)C)C(=O)NC(C(=O)NC(c1ccc(C(=N)N)cc1)P(=O)(Oc1ccccc1)Oc1ccccc1)C(C)O (mixture of isomers) [Boc--Asn--Leu--Thr-(4-AmPhGly)^P (OPh)2]
kobs /[I] bovine trypsin (bovine trypsin; Table II): 18 ± 2 M⁻¹ s⁻¹
kobs /[I] human thrombin (human thrombin): 46 ± 6 M⁻¹ s⁻¹
